Earlier results on 1 compound are cited in patent US7662581B1, “Eg5 co-crystals” (Novartis Vaccines and Diagnostics, Inc., priority 2003, dated 2010).

In one data set the test system is HsEg5. The settings on record: protein level.
Data set [1] concerns DAN-G pancreatic carcinoma cells.

For `CC1=C(/C=C/C(C)=C/C=C/C(C)=C/C(=O)O)C(C)(C)CCC1` [ATRA, all trans-retinoic acid], in the data set with HsEg5, the HsEg5 expression entry is given as “reduces HsEg5 expression on protein level”. Further, the growth inhibition entry in data set [1] is given as “significant growth inhibition”.
